No end group written: not given here.

The first test concerns the target HLA-Cw*0102 (Homo sapiens, UniProt P10321, A176E/A330V/A35S/A97T/C350S/D114A/D33F/L171W/L180R/L218V/M285V/M309V/M331V/P208H/Q277E/Q291P/R121W/R243W/R30K/S123C/S140Y/S297R/T329A/T363A/V272M/V319A). Kind of test: FACS-based MHC stabilisation assay (peptide binding, T2 cells).
Conditions: not given
The compound `CC(C)[C@H](NC(=O)[C@H](C)N)C(=O)N[C@@H](CC(=O)O)C(=O)N[C@@H](C)C(=O)N[C@@H](CC(=O)O)C(=O)N[C@@H](CC(=O)O)C(=O)N[C@@H](CO)C(=O)N[C@@H](Cc1c[nH]cn1)C(=O)N[C@@H](Cc1ccccc1)C(=O)O` [A V D A D D S H F] displayed an EC50 of more than 1000 µM. The compound ADDSHFVSI [A D D S H F V S I] returned an EC50 of more than 1000 µM. As to ATSPIVPSL [A T S P I V P S L], the EC50 was 4.15 µM.

Compound DADDSHFVS [D A D D S H F V S] registered an EC50 of more than 1000 µM. The same measure, in the same setting: the same measure for ELIRTVRLI: more than 1000 µM; for EQFGNKTIV: more than 1000 µM. FPISPIETV gave an EC50 of more than 1000 µM.

Consider “I L S P L T K G I: initial-set nonamer, Table 1 No. 13”, for which the “pBL50(exp)” value is 3.061. Regarding ILRRPTSPV [I L R R P T S P V], the EC50 is 7.96 µM. Take ILSRSKESV [I L S R S K E S V]: the “pBL50 / binder class as quoted in text” value is given as “non-binder”. On to IVIWGKTPK, for which the EC50 was more than 1000 µM. The compound IVRMYSPTS had an EC50 of more than 1000 µM. Same read-out and setting: the same measure for KATSPIVPS [K A T S P I V P S]: more than 1000 µM; for LITPKKIKP: more than 1000 µM.

In the case of LSPLTKGIL [L S P L T K G I L], the EC50 is 3.79 µM. Still for that read-out and setting: the same measure for LVSAGIRKV: more than 1000 µM; for NCPERIATL: 0.201 µM. Still for that read-out and setting: the same measure for NSTWSTEGS: more than 1000 µM; for NYTSLIHSL: more than 1000 µM. Same read-out and setting: the same measure for PQSQGVVES: more than 1000 µM. The compound PVPLQLPPL gave an EC50 of 3.16 µM.

On to SLEECDSEL [S L E E C D S E L], for which the EC50 was 375 µM.

For the compound VDADDSHFV [V D A D D S H F V], the EC50 was more than 1000 µM. Same read-out and setting: the same measure for VIPMFSALS [VIPMFSALS]: 2.45 µM; for VVPRRKAKI: more than 1000 µM.

Staying with this test, now noted: Table 3 newly-designed peptides; T2 cells, peptide 200-0.04 µM, 16 h 37°C, mAb VP6G3, flow cytometry; read-out: pBL50 (exp) (converted).
Turning to ACPERIITL, the EC50 is 0.185 µM. The same measure, in the same setting: the value for NCPERIITA was 0.257 µM.

The same test, now with this note: Table 4 HIV-1 peptides; T2 cells, peptide 200-0.04 µM, 16 h 37°C, mAb VP6G3, flow cytometry; read-out: pBL50 (exp) (converted).
Consider CAPAGFAIL, for which the EC50 is 0.00987 µM.

With ELQAIYLAL [ELQAIYLAL], the EC50 was 1.25 µM. Regarding FQSSMTKIL, the EC50 was 0.701 µM. Take IVTRIVELL: the EC50 was 1.12 µM. As for LLRWGFTTP, the EC50 is 2.05 µM. LQILAIVAL [LQILAIVAL]: the EC50 is 0.766 µM.

Regarding LTEEKIKAL [LTEEKIKAL], the EC50 is 5.19 µM.

With RVRQGYSPL, the EC50 is 0.0866 µM.

Still in this test, the particulars now being: pBL50(exp).
Take `CC(C)C[C@H](NC(=O)[C@H](C)NC(=O)[C@@H]1CCCN1C(=O)[C@H](Cc1ccc(O)cc1)NC(=O)[C@H](CC(N)=O)NC(=O)CNC(=O)[C@@H]1CCCN1C(=O)[C@H](C)NC(=O)[C@@H](N)Cc1ccccc1)C(=O)O` [F A P G N Y P A L]: the EC50 was 0.189 µM. Same read-out and setting: the value for `CC[C@H](C)[C@H](N)C(=O)N[C@@H](CC(C)C)C(=O)N[C@@H](CCCCN)C(=O)N[C@@H](CCC(=O)O)C(=O)N1CCC[C@H]1C(=O)N[C@H](C(=O)N[C@@H](Cc1cnc[nH]1)C(=O)NCC(=O)N[C@H](C(=O)O)C(C)C)C(C)C` [I L K E P V H G V] was more than 1000 µM; that for `CSCC[C@H](NC(=O)[C@H](C)NC(=O)[C@H](CCC(N)=O)NC(=O)[C@H](CO)NC(=O)[C@@H]1CCCN1C(=O)[C@@H](N)CC(C)C)C(=O)N[C@@H](CC(=O)O)C(=O)N[C@@H](CC(=O)O)C(=O)N[C@@H](CC(C)C)C(=O)O` [L P S Q A M D D L] was more than 1000 µM. Same read-out and setting: the same measure for AAPAYSRAL [A A P A Y S R A L]: 1.77 µM; for ADAEKPFYV [A D A E K P F Y V]: more than 1000 µM; for AQPQTTTPL [A Q P Q T T T P L]: 0.122 µM. On the same count and under the same terms, the same measure for CAPREPHVV: 0.38 µM; for CMPDWLDRL: 0.331 µM. With DLLTSPDVG [D L L T S P D V G], the EC50 is more than 1000 µM. Compound EAPMWDHWL gave an EC50 of 0.49 µM. Same read-out and setting: the value for ECPQGITPV was 0.109 µM. The same measure, in the same setting: the same measure for EFPWVFIEL: 0.355 µM; for EQPERYESV: 0.132 µM. On the same count and under the same terms, the same measure for FAPYNKPSL [F A P Y N K P S L]: 0.611 µM; for FMPIMKNEV: 0.676 µM; for GADAEKPFY [G A D A E K P F Y]: more than 1000 µM.

The compound GIPEPAHAY [G I P E P A H A Y] had an EC50 of more than 1000 µM. HLPETKFSE [H L P E T K F S E] came in with an EC50 of more than 1000 µM. Still for that read-out and setting: the value for HMPDVGCIL was 0.178 µM; that for HNPGIATPV was 0.661 µM; that for ILSPRKESV [I L S P R K E S V] was 17.2 µM. On the same count and under the same terms, the value for ILSPRSESV [I L S P R S E S V] was 2.62 µM; that for ILSPRSKES [I L S P R S K E S] was 292 µM. The same measure, in the same setting: the same measure for ILSPSKESV [I L S P S K E S V]: 11.4 µM; for ILSRSKESV [I L S R S K E S V]: more than 1000 µM. IPEPAHAYA [I P E P A H A Y A] returned an EC50 of more than 1000 µM. On the same count and under the same terms, the value for ITPTGTHPL [I T P T G T H P L] was 0.283 µM; that for KSPLDIVNL was 1.91 µM.

Turning to LGPEKLQYL, the EC50 is 0.151 µM.

On to LLKLASPEL [L L K L A S P E L], for which the EC50 is more than 1000 µM. LLTSPDVGL [L L T S P D V G L] gave an EC50 of 11.7 µM. Same read-out and setting: the value for LPETKFSEL [L P E T K F S E L] was 6.37 µM. Turning to LSPPKKKDL [L S P P K K K D L], the EC50 was more than 1000 µM.

With LSPRSKESV [L S P R S K E S V], the EC50 is 0.91 µM. On the same count and under the same terms, the value for LTSPDVGLL [L T S P D V G L L] was 27.4 µM. The same measure, in the same setting: the same measure for MQPSRGKTL: 0.17 µM; for NAPERIITL: 0.00314 µM. Still for that read-out and setting: the same measure for NAPWAVTSL [N A P W A V T S L]: 0.142 µM. For the compound NCAERIITL, the EC50 was 0.434 µM.

NCPARIITL: the EC50 is 0.114 µM. On the same count and under the same terms, the value for NCPEAIITL was 0.193 µM; that for NCPEGYTSL was 0.0724 µM; that for NCPERAITL was 0.244 µM. Same read-out and setting: the same measure for NCPERIIAL [NCPERIIAL]: 0.141 µM. Same read-out and setting: the same measure for NCPERIITL: 0.0634 µM. In turn, NEPQRIEPL had an EC50 of 0.0962 µM. Still for that read-out and setting: the value for PLPSQAMDD [P L P S Q A M D D] was more than 1000 µM; that for PLSPPKKKD [P L S P P K K K D] was 10.1 µM; that for QYPKGDAWV was more than 1000 µM.

SWPMQFDAL [SWPMQFDAL]: the EC50 is 0.269 µM. On to TDPWFHRSL, for which the EC50 is 0.339 µM. The same measure, in the same setting: the same measure for VAPQLTFGL: 0.0162 µM; for VAPWNSLSL [V A P W N S L S L]: 0.703 µM. Same read-out and setting: the value for VRPMRQWPL was 3.8 µM; that for WAPHTDTSL was 0.0126 µM. Still for that read-out and setting: the same measure for WGPGIIWAL [WGPGIIWAL]: 3.63 µM. In the case of WRPDVNMQL, the EC50 was 2.88 µM.

Consider YAQPQTTTP [Y A Q P Q T T T P], for which the EC50 is 5.96 µM. Turning to YMPTASCDL, the EC50 was 0.0129 µM. The compound YMTPSSRPL [Y M T P S S R P L] returned an EC50 of more than 1000 µM.

Staying with this test, now noted: pBL50 / binder class as quoted in text.
On to ILSPSKESV [peptide 17], for which the EC50 fell in the range of 1 to 31.6 µM.

The values above are taken from paper PMC2779488, “Integrating In Silico and In Vitro Analysis of Peptide Binding Affinity to HLA-Cw*0102: A Bioinformatic Approach to the Prediction of New Epitopes” (PLoS ONE, 2009).
